From the supplement of paper PMC11208160

Test: recombinant UMI read abundance after kanamycin selection (control-corrected) (log10(CPM+1)); higher = more efficient recombination; extreme values may be limits of the assay; sequences stand for … in AGTGCAGAGAAAATCGGCCAGTTTTCTCTGCCTGCAGTCCGCATGCCGTGGGACCCCTTGGGTTCTAACCTGTTGCCTAGATTTATGCAGCGGACTGCCTTTCTCCCAAAGTGATAAACCGG…AGGTTGGTTTCACT; site = the 11-nt donor
How it was run: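 Pooled Escherichia coli screen of donor and donor-binding-loop pairs for the IS621 bridge recombinase. Each pair sits with a 12-nt UMI on a plasmid carrying a promoterless kanamycin gene. The library was co-electroporated with a target plasmid encoding a fixed target and T7-inducible recombinase, then plated with IPTG (0.07 mM) plus kanamycin, or unselected, each in two replicates. Recombinant UMIs were PCR-amplified across the donor–target junction and sequenced. Counts became CPM, averaged over replicates, scaled by control-derived factors and reported as log10(CPM+1).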
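Further: IS621 bridge recombinase in Escherichia coli cells against a fixed T5 target plasmid.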

Question: Which “recombinant UMI read abundance (log10)” value does the source give for “AGCGCTCCATGGACCGGTTTTCCCGGTAATCCGTATTTGCC (site AGCGCTCCTGG)” here?
Answer: 0

Question: With “AGCGGCTCATGGACCGGTTTTCCCGGTAATCCGTATTTGGG (site AGCGGCTCTCC)” as the sequence, how does the “recombinant UMI read abundance (log10)” value read?
Answer: 0.204

Question: With “AGCTAAGCATGGACCGGTTTTCCCGGTAATCCGTATTTGGG (site AGCTAAGCTCC)” as the sequence, how does the “recombinant UMI read abundance (log10)” value read?
Answer: 0.00725

Question: Which “recombinant UMI read abundance (log10)” value does the source give for “AGCTAAGCATGGACCGGTTTTCCCGGTAATCCGTATTTGGG (site AGCTCAGCTCC)” here?
Answer: 0.0056

Question: With “AGCTAAGCATGGACCGGTTTTCCCGGTAATCCGTATTTGGG (site AGCTGAGCTCC)” as the sequence, how does the “recombinant UMI read abundance (log10)” value read?
Answer: 0.0394

Question: Which “recombinant UMI read abundance (log10)” value does the source give for “AGCTAAGCATGGACCGGTTTTCCCGGTAATCCGTATTTGGG (site AGCTTAGCTCC)” here?
Answer: 0.117

Question: For “AGCTACGCATGGACCGGTTTTCCCGGTAATCCGTATTTGAA (site AGCTACGCTTT)”, which “recombinant UMI read abundance (log10)” value is on record?
Answer: 1.7

Question: For “AGCTAGCCATGGACCGGTTTTCCCGGTAATCCGTATTTGGA (site AGCTAGCCTTC)”, which “recombinant UMI read abundance (log10)” value is on record?
Answer: 0.00495

Question: Which “recombinant UMI read abundance (log10)” value does the source give for “AGCTAGGCATGGACCGGTTTTCCCGGTAATCCGTATTTGGT (site AGCTAGGCTAC)” here?
Answer: 0.659

Question: For “AGCTAGGCATGGACCGGTTTTCCCGGTAATCCGTATTTGGT (site CGCTAGGCTAC)”, which “recombinant UMI read abundance (log10)” value is on record?
Answer: 0.00222

Question: With “AGCTAGGCATGGACCGGTTTTCCCGGTAATCCGTATTTGGT (site GGCTAGGCTAC)” as the sequence, how does the “recombinant UMI read abundance (log10)” value read?
Answer: 0.0154

Question: Which “recombinant UMI read abundance (log10)” value does the source give for “AGCTAGGCATGGACCGGTTTTCCCGGTAATCCGTATTTGGT (site TGCTAGGCTAC)” here?
Answer: 0.0219

Question: For “AGCTCACCATGGACCGGTTTTCCCGGTAATCCGTATTTGGG (site AGCTCAACTCC)”, which “recombinant UMI read abundance (log10)” value is on record?
Answer: 0.0175

Question: With “AGCTCACCATGGACCGGTTTTCCCGGTAATCCGTATTTGGG (site AGCTCACCTCC)” as the sequence, how does the “recombinant UMI read abundance (log10)” value read?
Answer: 0.0182

Question: With “AGCTCACCATGGACCGGTTTTCCCGGTAATCCGTATTTGGG (site AGCTCAGCTCC)” as the sequence, how does the “recombinant UMI read abundance (log10)” value read?
Answer: 0.0165

Question: For “AGCTCACCATGGACCGGTTTTCCCGGTAATCCGTATTTGGG (site AGCTCATCTCC)”, which “recombinant UMI read abundance (log10)” value is on record?
Answer: 0

Question: With “AGCTCAGCATGGACCGGTTTTCCCGGTAATCCGTATTTGAG (site AGCTCAGCTCA)” as the sequence, how does the “recombinant UMI read abundance (log10)” value read?
Answer: 0.0132

Question: With “AGCTCAGCATGGACCGGTTTTCCCGGTAATCCGTATTTGAG (site AGCTCAGCTCC)” as the sequence, how does the “recombinant UMI read abundance (log10)” value read?
Answer: 0.026

Question: With “AGCTCAGCATGGACCGGTTTTCCCGGTAATCCGTATTTGAG (site AGCTCAGCTCG)” as the sequence, how does the “recombinant UMI read abundance (log10)” value read?
Answer: 0

Question: Which “recombinant UMI read abundance (log10)” value does the source give for “AGCTCAGCATGGACCGGTTTTCCCGGTAATCCGTATTTGAG (site AGCTCAGCTCT)” here?
Answer: 1.33

Question: For “AGCTCAGCATGGACCGGTTTTCCCGGTAATCCGTATTTGGA (site AGCTCAGCTAC)”, which “recombinant UMI read abundance (log10)” value is on record?
Answer: 0.00904

Question: For “AGCTCAGCATGGACCGGTTTTCCCGGTAATCCGTATTTGGA (site AGCTCAGCTCC)”, which “recombinant UMI read abundance (log10)” value is on record?
Answer: 0.264

Question: Which “recombinant UMI read abundance (log10)” value does the source give for “AGCTCAGCATGGACCGGTTTTCCCGGTAATCCGTATTTGGA (site AGCTCAGCTGC)” here?
Answer: 0

Question: Which “recombinant UMI read abundance (log10)” value does the source give for “AGCTCAGCATGGACCGGTTTTCCCGGTAATCCGTATTTGGA (site AGCTCAGCTTC)” here?
Answer: 1.03

Question: Which “recombinant UMI read abundance (log10)” value does the source give for “AGCTCAGCATGGACCGGTTTTCCCGGTAATCCGTATTTGTG (site AGCTCAGCTCA)” here?
Answer: 0.506

Question: Which “recombinant UMI read abundance (log10)” value does the source give for “AGCTCAGCATGGACCGGTTTTCCCGGTAATCCGTATTTGTG (site AGCTCAGCTCC)” here?
Answer: 0.00732

Question: For “AGCTCAGCATGGACCGGTTTTCCCGGTAATCCGTATTTGTG (site AGCTCAGCTCG)”, which “recombinant UMI read abundance (log10)” value is on record?
Answer: 0

Question: With “AGCTCAGCATGGACCGGTTTTCCCGGTAATCCGTATTTGTG (site AGCTCAGCTCT)” as the sequence, how does the “recombinant UMI read abundance (log10)” value read?
Answer: 0.362

Question: Which “recombinant UMI read abundance (log10)” value does the source give for “AGCTCGACATGGACCGGTTTTCCCGGTAATCCGTATTTGGC (site AGCTCGACTGC)” here?
Answer: 1.31

Question: For “AGCTCTGCATGGACCGGTTTTCCCGGTAATCCGTATTTGGG (site AGCTCAGCTCC)”, which “recombinant UMI read abundance (log10)” value is on record?
Answer: 0.0199

Question: With “AGCTCTGCATGGACCGGTTTTCCCGGTAATCCGTATTTGGG (site AGCTCCGCTCC)” as the sequence, how does the “recombinant UMI read abundance (log10)” value read?
Answer: 0.0101

Question: For “AGCTCTGCATGGACCGGTTTTCCCGGTAATCCGTATTTGGG (site AGCTCGGCTCC)”, which “recombinant UMI read abundance (log10)” value is on record?
Answer: 0

Question: For “AGCTCTGCATGGACCGGTTTTCCCGGTAATCCGTATTTGGG (site AGCTCTGCTCC)”, which “recombinant UMI read abundance (log10)” value is on record?
Answer: 0.25

Question: Which “recombinant UMI read abundance (log10)” value does the source give for “AGCTTAGCATGGACCGGTTTTCCCGGTAATCCGTATTTGTT (site AGCATAGCTAA)” here?
Answer: 0.00999

Question: Which “recombinant UMI read abundance (log10)” value does the source give for “AGCTTAGCATGGACCGGTTTTCCCGGTAATCCGTATTTGTT (site AGCCTAGCTAA)” here?
Answer: 0.261

Question: With “AGCTTAGCATGGACCGGTTTTCCCGGTAATCCGTATTTGTT (site AGCGTAGCTAA)” as the sequence, how does the “recombinant UMI read abundance (log10)” value read?
Answer: 0.0147

Question: For “AGCTTAGCATGGACCGGTTTTCCCGGTAATCCGTATTTGTT (site AGCTTAGCTAA)”, which “recombinant UMI read abundance (log10)” value is on record?
Answer: 0.0106

Question: For “AGCTTCCCATGGACCGGTTTTCCCGGTAATCCGTATTTGGG (site AGCTTCCCTCC)”, which “recombinant UMI read abundance (log10)” value is on record?
Answer: 0.0229

Question: For “AGCTTGCCATGGACCGGTTTTCCCGGTAATCCGTATTTGAT (site AGCTTGCCTAT)”, which “recombinant UMI read abundance (log10)” value is on record?
Answer: 0.0115

Question: For “AGGAAGACATGGACCGGTTTTCCCGGTAATCCGTATTTGAC (site AGGAAGACTGT)”, which “recombinant UMI read abundance (log10)” value is on record?
Answer: 2.64

Question: With “AGGAAGACATGGACCGGTTTTCCCGGTAATCCGTATTTGAC (site AGGAAGACTTG)” as the sequence, how does the “recombinant UMI read abundance (log10)” value read?
Answer: 0.571

Question: For “AGGAAGACATGGACCGGTTTTCCCGGTAATCCGTATTTGCC (site AGGAAGACTAG)”, which “recombinant UMI read abundance (log10)” value is on record?
Answer: 0.42

Question: Which “recombinant UMI read abundance (log10)” value does the source give for “AGGAAGACATGGACCGGTTTTCCCGGTAATCCGTATTTGCC (site AGGAAGACTCG)” here?
Answer: 0.723

Question: For “AGGAAGACATGGACCGGTTTTCCCGGTAATCCGTATTTGCC (site AGGAAGACTGG)”, which “recombinant UMI read abundance (log10)” value is on record?
Answer: 1.84

Question: Which “recombinant UMI read abundance (log10)” value does the source give for “AGGAAGACATGGACCGGTTTTCCCGGTAATCCGTATTTGCC (site AGGAAGACTTG)” here?
Answer: 1.8

Question: Which “recombinant UMI read abundance (log10)” value does the source give for “AGGAAGACATGGACCGGTTTTCCCGGTAATCCGTATTTGGT (site AGGAAGACTAC)” here?
Answer: 2.1

Question: With “AGGAAGACATGGACCGGTTTTCCCGGTAATCCGTATTTGGT (site AGGAAGACTTG)” as the sequence, how does the “recombinant UMI read abundance (log10)” value read?
Answer: 0

Question: For “AGGAAGCCATGGACCGGTTTTCCCGGTAATCCGTATTTGCC (site AGGAAGACTTG)”, which “recombinant UMI read abundance (log10)” value is on record?
Answer: 0

Question: With “AGGAAGCCATGGACCGGTTTTCCCGGTAATCCGTATTTGCC (site AGGAAGCCTGG)” as the sequence, how does the “recombinant UMI read abundance (log10)” value read?
Answer: 0

Question: For “AGGAATACATGGACCGGTTTTCCCGGTAATCCGTATTTGCA (site AGGAAAACTTG)”, which “recombinant UMI read abundance (log10)” value is on record?
Answer: 0.656

Question: With “AGGAATACATGGACCGGTTTTCCCGGTAATCCGTATTTGCA (site AGGAACACTTG)” as the sequence, how does the “recombinant UMI read abundance (log10)” value read?
Answer: 1.48

Question: With “AGGAATACATGGACCGGTTTTCCCGGTAATCCGTATTTGCA (site AGGAAGACTTG)” as the sequence, how does the “recombinant UMI read abundance (log10)” value read?
Answer: 0.151
